# Assay results: the supplement of paper PMC5579334
# Columns and labels:
# [1] = test system: STS26T; test: relative IC50 (inflection point of fitted dose-response curve, CellTox-Green cytotoxicity, 72 h; top asymptote may be below 50%); higher = less potent
# Outline: (§1)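 MPNST cell lines and primary human Schwann cells were grown for 72 h at 37 °C in 384-well plates containing five 10-fold compound dilutions. CellTox-Green, added before seeding at a final 1:1000 dilution, gave fluorescence from DNA released by disrupted cells, and signals were scaled to vehicle and positive-control wells. Curves were fitted with a four-parameter logistic model. Drug sensitivity score and relative IC50 come from these fits, with IC50 censored at the top concentration.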
# [2] = test system: ST8814; test: as above
# Outline: as §1
# [3] = test system: HS-PSS; test: as above
# Outline: as §1
# [4] = test system: HSC2; test: as above
# Outline: as §1
# [5] = test system: HSC1; test: as above
# Outline: as §1
# [6] = test system: YST-1; test: relative IC50 (inflection point of fitted dose-response curve, CellTiter-Glo viability, 72 h; top asymptote may be below 50% inhibition); higher = less potent
# Outline: (§2)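 Viability of MPNST cell lines and primary human Schwann cells was read as CellTiter-Glo ATP luminescence after 72 h at 37 °C, 5% CO2, in 384-well plates seeded with 750–1000 cells per well. Each compound had been preprinted at five concentrations in 10-fold steps. Signals were scaled between vehicle and positive-control wells, duplicates averaged where present, and fitted with four-parameter logistic curves. Drug sensitivity score and relative IC50 (censored at the top concentration) come from those fits, and percent inhibition is taken at the top concentration.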
# [7] = test system: STS26T; test: as above
# Outline: as §2
# [8] = test system: S1507-2; test: as above
# Outline: as §2
# [9] = test system: HS-Sch-2; test: as above
# Outline: as §2
# [10] = test system: ST8814; test: as above
# Outline: as §2
# [11] = test system: HS-PSS; test: as above
# Outline: as §2
# [12] = test system: S462; test: as above
# Outline: as §2
# [13] = test system: HSC2; test: as above
# Outline: as §2
# [14] = test system: HSC1; test: as above
# Outline: as §2
Compound,relative IC50 [1] [µM],relative IC50 [2] [nM],relative IC50 [3] [µM],relative IC50 [4] [nM],relative IC50 [5] [nM],relative IC50 [6] [nM],relative IC50 [7] [nM],relative IC50 [8] [nM],relative IC50 [9] [nM],relative IC50 [10] [nM],relative IC50 [11] [nM],relative IC50 [12] [nM],relative IC50 [13] [nM],relative IC50 [14] [nM]
COc1cc2ncnc(Nc3ccc(F)c(Cl)c3)c2cc1OCCCN1CCOCC1 [Gefitinib],3.93,2950,> 10,> 10000,> 10000,987,3770,3600,1900,3560,1780,4160,2690,2940
O=C1c2c(O)ccc(O)c2C(=O)c2c(NCCNCCO)ccc(NCCNCCO)c21 [Mitoxantrone],0.38,384,> 1,> 1000,> 1000,56.6,366,244,87.4,292,194,213,89.1,164
COc1cccc2cc(-c3nc([C@H]4CC[C@H](C(=O)O)CC4)n4ncnc(N)c34)[nH]c12 [OSI-027],> 10,> 10000,> 10,> 10000,> 10000,788,1810,631,3470,883,3800,608,1150,712
COC1=CC(c2cc3ccccc3[nH]2)=N/C1=C\c1[nH]c(C)cc1C [Obatoclax],2.96,2870,> 10,2100,2220,1230,2330,1900,1590,2880,1990,1960,1360,1370
CC(=O)c1c(C)c2cnc(Nc3ccc(N4CCNCC4)cn3)nc2n(C2CCCC2)c1=O [Palbociclib],> 10,> 10000,> 10,> 10000,> 10000,1350,1340,987,1940,1740,1700,855,286,268
C/C(=C\c1csc(C)n1)[C@@H]1C[C@@H]2O[C@]2(C)CCC[C@H](C)[C@H](O)[C@@H](C)C(=O)C(C)(C)[C@@H](O)CC(=O)O1 [Patupilone],0.00103,4.33,> 1,9.17,12.1,0.72,1.03,3.52,1.37,2.25,0.89,0.718,2.45,0.929
CS(=O)(=O)N1CCN(Cc2cc3nc(-c4cccc5[nH]ncc45)nc(N4CCOCC4)c3s2)CC1 [Pictilisib],> 10,2280,> 10,> 10000,> 10000,445,310,128,1750,789,1110,1150,1550,1210
CO[C@H](C(=O)[C@@H](O)[C@@H](C)O)[C@@H]1Cc2cc3cc(O[C@H]4C[C@@H](O[C@H]5C[C@@H](O)[C@H](O)[C@@H](C)O5)[C@@H](O)[C@@H](C)O4)c(C)c(O)c3c(O)c2C(=O)[C@H]1O[C@H]1C[C@@H](O[C@H]2C[C@@H](O[C@H]3C[C@](C)(O)[C@H](O)[C@@H](C)O3)[C@H](O)[C@@H](C)O2)[C@H](O)[C@@H](C)O1 [Plicamycin],0.0333,> 10000,2.41,247,255,564,47.5,102,865,51.4,1380,85.2,52,45.6
CNNCc1ccc(C(=O)NC(C)C)cc1 [Procarbazine],> 10,> 10000,> 10,> 10000,> 10000,> 10000,> 10000,> 10000,> 10000,> 10000,> 10000,> 10000,> 10000,> 10000
C[C@@H](C(=O)O)c1ccc(-c2ccccc2)c(F)c1 [Tarenflurbil],> 10,> 10000,> 10,> 10000,> 10000,> 10000,> 10000,> 10000,> 10000,> 10000,> 10000,> 10000,> 10000,> 10000
CO[C@H]1C[C@@H]2CC[C@@H](C)[C@@](O)(O2)C(=O)C(=O)N2CCCC[C@H]2C(=O)O[C@H]([C@H](C)C[C@@H]2CC[C@@H](OC(=O)C(C)(CO)CO)[C@H](OC)C2)CC(=O)[C@H](C)/C=C(\C)[C@@H](O)[C@@H](OC)C(=O)[C@H](C)C[C@H](C)/C=C/C=C/C=C/1C [Temsirolimus],> 0.1,> 100,> 0.1,> 100,> 100,1.38,0.237,0.775,1.18,0.561,1.13,1.34,0.227,0.103
O=C(CCCCCCC(=O)Nc1ccc([C@H]2O[C@@H](CSc3nc(-c4ccccc4)c(-c4ccccc4)o3)C[C@@H](c3ccc(CO)cc3)O2)cc1)NO [Tubacin],3.19,3070,,> 10000,> 10000,2010,3310,3190,2800,2970,1470,3160,2970,3280
